Measured values taken from ChEMBL document CHEMBL3885861, “Open TG-GATES”.

Species: Rattus norvegicus
Test: Open TG-GATES - Regimen: Single
Assay type: toxicity, organism-based, Sprague-Dawley
Set-up: regimen Single, gender Male, age 6 weeks
Conditions: in vivo, po, route gavage; for APTT / Bas / Eos / Fbg / Hb / Ht / Lym / MCH / MCHC / MCV / Mono / Neu / PT / Plat / RBC / Ret / WBC: tissue Blood; for KIDNEY_L / KIDNEY_R / KIDNEY_TOTAL: tissue Kidney; for LIVER: tissue Liver; for ALP / ALT / AST / BUN / CRE / DBIL / GLC / K / Na / PL / RALB / TBIL / TC / TG / TP / gamma-GTP: tissue Plasma
[1] = 75 mg/kg, 3 h, dose level Middle
[2] = 75 mg/kg, 6 h, dose level Middle
[3] = 75 mg/kg, 9 h, dose level Middle
[4] = 75 mg/kg, 24 h, dose level Middle
[5] = 250 mg/kg, 3 h, dose level High
[6] = 250 mg/kg, 6 h, dose level High
[7] = 250 mg/kg, 9 h, dose level High
[8] = 250 mg/kg, 24 h, dose level High

CN1C(=O)CN=C(c2ccccc2)c2cc(Cl)ccc21 [DIAZEPAM]
TERMINAL_BW [1]: 217.1 g
APTT [1]: 15.6 s
Bas [1]: 0%
Eos [1]: 1.2%
Fbg [1]: 212.4 mg/dL
Hb [1]: 13.8 g/dL
Ht [1]: 41.7%
Lym [1]: 77.2%
MCH [1]: 22.1 pg
MCHC [1]: 33.1%
MCV [1]: 66.8 fL
Mono [1]: 6.2%
Neu [1]: 15.6%
PT [1]: 12.7 s
Plat [1]: 103.8 x10_4/uL
RBC [1]: 624.4 x10_4/ul
Ret [1]: 8.2%
WBC [1]: 74.8 x10_2/uL
KIDNEY_L [1]: 1 g
KIDNEY_R [1]: 1 g
KIDNEY_TOTAL [1]: 2 g
LIVER [1]: 10.1 g
ALP [1]: 916 IU/L
ALT [1]: 31.2 IU/L
AST [1]: 62.6 IU/L
BUN [1]: 12 mg/dL
CRE [1]: 0.5 mg/dL
DBIL [1]: 0.028 mg/dL
GLC [1]: 187.6 mg/dL
K [1]: 5.1 meq/L
Na [1]: 139.6 meq/L
PL [1]: 133 mg/dL
RALB [1]: 3.9 g/dL
TBIL [1]: 0.4 mg/dL
TC [1]: 73 mg/dL
TG [1]: 46.8 mg/dL
TP [1]: 5.5 g/dL
gamma-GTP [1]: 1.6 IU/L
TERMINAL_BW [2]: 213.3 g
APTT [2]: 16.5 s
Bas [2]: 0%
Eos [2]: 0.8%
Fbg [2]: 222.8 mg/dL
Hb [2]: 13.8 g/dL
Ht [2]: 41.9%
Lym [2]: 79.2%
MCH [2]: 22.3 pg
MCHC [2]: 33.1%
MCV [2]: 67.3 fL
Mono [2]: 7.2%
Neu [2]: 13.2%
PT [2]: 12.1 s
Plat [2]: 105.5 x10_4/uL
RBC [2]: 621.2 x10_4/ul
Ret [2]: 8.1%
WBC [2]: 115.9 x10_2/uL
KIDNEY_L [2]: 1 g
KIDNEY_R [2]: 1 g
KIDNEY_TOTAL [2]: 2 g
LIVER [2]: 10.3 g
ALP [2]: 899 IU/L
ALT [2]: 30.4 IU/L
AST [2]: 59 IU/L
BUN [2]: 13 mg/dL
CRE [2]: 0.5 mg/dL
DBIL [2]: 0.02 mg/dL
GLC [2]: 198.2 mg/dL
K [2]: 5.5 meq/L
Na [2]: 139.6 meq/L
PL [2]: 147.8 mg/dL
RALB [2]: 3.8 g/dL
TBIL [2]: 0.4 mg/dL
TC [2]: 77.4 mg/dL
TG [2]: 78.2 mg/dL
TP [2]: 5.8 g/dL
gamma-GTP [2]: 1.6 IU/L
TERMINAL_BW [3]: 215.6 g
APTT [3]: 16.4 s
Bas [3]: 0%
Eos [3]: 0.8%
Fbg [3]: 213.8 mg/dL
Hb [3]: 13.9 g/dL
Ht [3]: 41.8%
Lym [3]: 80.2%
MCH [3]: 21.1 pg
MCHC [3]: 33.1%
MCV [3]: 63.8 fL
Mono [3]: 5.4%
Neu [3]: 13.8%
PT [3]: 12.4 s
Plat [3]: 101.8 x10_4/uL
RBC [3]: 655.6 x10_4/ul
Ret [3]: 8.2%
WBC [3]: 90.1 x10_2/uL
KIDNEY_L [3]: 1 g
KIDNEY_R [3]: 1 g
KIDNEY_TOTAL [3]: 1.9 g
LIVER [3]: 9.7 g
ALP [3]: 771 IU/L
ALT [3]: 33 IU/L
AST [3]: 62.8 IU/L
BUN [3]: 14.2 mg/dL
CRE [3]: 0.6 mg/dL
DBIL [3]: 0.048 mg/dL
GLC [3]: 208 mg/dL
K [3]: 4.5 meq/L
Na [3]: 140 meq/L
PL [3]: 143.8 mg/dL
RALB [3]: 3.8 g/dL
TBIL [3]: 0.4 mg/dL
TC [3]: 71 mg/dL
TG [3]: 80.6 mg/dL
TP [3]: 5.7 g/dL
gamma-GTP [3]: 1.4 IU/L
TERMINAL_BW [4]: 230.6 g
APTT [4]: 16.2 s
Bas [4]: 0%
Eos [4]: 0.8%
Fbg [4]: 208.2 mg/dL
Hb [4]: 13.6 g/dL
Ht [4]: 40.9%
Lym [4]: 79.4%
MCH [4]: 21.6 pg
MCHC [4]: 33.2%
MCV [4]: 65.1 fL
Mono [4]: 5.6%
Neu [4]: 14%
PT [4]: 12.3 s
Plat [4]: 103.8 x10_4/uL
RBC [4]: 628.4 x10_4/ul
Ret [4]: 8%
WBC [4]: 115 x10_2/uL
KIDNEY_L [4]: 1 g
KIDNEY_R [4]: 1.1 g
KIDNEY_TOTAL [4]: 2.1 g
LIVER [4]: 11.2 g
ALP [4]: 921 IU/L
ALT [4]: 37.2 IU/L
AST [4]: 64 IU/L
BUN [4]: 17.8 mg/dL
CRE [4]: 0.6 mg/dL
DBIL [4]: 0.012 mg/dL
GLC [4]: 199 mg/dL
K [4]: 5.1 meq/L
Na [4]: 139.4 meq/L
PL [4]: 141.6 mg/dL
RALB [4]: 4 g/dL
TBIL [4]: 0.4 mg/dL
TC [4]: 75.6 mg/dL
TG [4]: 97.4 mg/dL
TP [4]: 5.8 g/dL
gamma-GTP [4]: 1.2 IU/L
TERMINAL_BW [5]: 215.9 g
APTT [5]: 16.1 s
Bas [5]: 0%
Eos [5]: 1%
Fbg [5]: 213.4 mg/dL
Hb [5]: 13.6 g/dL
Ht [5]: 41%
Lym [5]: 75.8%
MCH [5]: 22.1 pg
MCHC [5]: 33.1%
MCV [5]: 66.7 fL
Mono [5]: 5.6%
Neu [5]: 17.6%
PT [5]: 12.7 s
Plat [5]: 109.5 x10_4/uL
RBC [5]: 615 x10_4/ul
Ret [5]: 8.8%
WBC [5]: 72.4 x10_2/uL
KIDNEY_L [5]: 1 g
KIDNEY_R [5]: 1 g
KIDNEY_TOTAL [5]: 2 g
LIVER [5]: 10.3 g
ALP [5]: 734 IU/L
ALT [5]: 34.2 IU/L
AST [5]: 67.4 IU/L
BUN [5]: 12.2 mg/dL
CRE [5]: 0.5 mg/dL
DBIL [5]: 0.028 mg/dL
GLC [5]: 196.2 mg/dL
K [5]: 4.7 meq/L
Na [5]: 140 meq/L
PL [5]: 144.4 mg/dL
RALB [5]: 3.7 g/dL
TBIL [5]: 0.4 mg/dL
TC [5]: 79.4 mg/dL
TG [5]: 64.2 mg/dL
TP [5]: 5.7 g/dL
gamma-GTP [5]: 1.4 IU/L
TERMINAL_BW [6]: 216.7 g
APTT [6]: 16.1 s
Bas [6]: 0%
Eos [6]: 0.8%
Fbg [6]: 240.4 mg/dL
Hb [6]: 14.3 g/dL
Ht [6]: 43.4%
Lym [6]: 77.2%
MCH [6]: 21.7 pg
MCHC [6]: 32.9%
MCV [6]: 65.9 fL
Mono [6]: 6.4%
Neu [6]: 16%
PT [6]: 12.3 s
Plat [6]: 120.4 x10_4/uL
RBC [6]: 659.8 x10_4/ul
Ret [6]: 8.4%
WBC [6]: 85.8 x10_2/uL
KIDNEY_L [6]: 1 g
KIDNEY_R [6]: 1 g
KIDNEY_TOTAL [6]: 2 g
LIVER [6]: 10.3 g
ALP [6]: 823.6 IU/L
ALT [6]: 27.8 IU/L
AST [6]: 68 IU/L
BUN [6]: 15.8 mg/dL
CRE [6]: 0.6 mg/dL
DBIL [6]: 0.008 mg/dL
GLC [6]: 210.6 mg/dL
K [6]: 5.6 meq/L
Na [6]: 141.6 meq/L
PL [6]: 161 mg/dL
RALB [6]: 4.1 g/dL
TBIL [6]: 0.5 mg/dL
TC [6]: 85.6 mg/dL
TG [6]: 74.4 mg/dL
TP [6]: 6.2 g/dL
gamma-GTP [6]: 1.8 IU/L
TERMINAL_BW [7]: 217 g
APTT [7]: 16.2 s
Bas [7]: 0%
Eos [7]: 1%
Fbg [7]: 240.5 mg/dL
Hb [7]: 14.2 g/dL
Ht [7]: 43%
Lym [7]: 80.5%
MCH [7]: 21.8 pg
MCHC [7]: 33%
MCV [7]: 66 fL
Mono [7]: 6.2%
Neu [7]: 12%
PT [7]: 12.2 s
Plat [7]: 118.3 x10_4/uL
RBC [7]: 652.2 x10_4/ul
Ret [7]: 8.2%
WBC [7]: 104.3 x10_2/uL
KIDNEY_L [7]: 1 g
KIDNEY_R [7]: 1 g
KIDNEY_TOTAL [7]: 2 g
LIVER [7]: 10 g
ALP [7]: 725 IU/L
ALT [7]: 25.8 IU/L
AST [7]: 67 IU/L
BUN [7]: 16.5 mg/dL
CRE [7]: 0.6 mg/dL
DBIL [7]: 0.0325 mg/dL
GLC [7]: 214.8 mg/dL
K [7]: 4.8 meq/L
Na [7]: 141.8 meq/L
PL [7]: 147.5 mg/dL
RALB [7]: 3.8 g/dL
TBIL [7]: 0.4 mg/dL
TC [7]: 84.5 mg/dL
TG [7]: 70.8 mg/dL
TP [7]: 5.8 g/dL
gamma-GTP [7]: 1.2 IU/L
TERMINAL_BW [8]: 235.1 g
APTT [8]: 15.6 s
Bas [8]: 0%
Eos [8]: 0.8%
Fbg [8]: 211 mg/dL
Hb [8]: 13.5 g/dL
Ht [8]: 40.5%
Lym [8]: 75%
MCH [8]: 21.9 pg
MCHC [8]: 33.4%
MCV [8]: 65.4 fL
Mono [8]: 7.6%
Neu [8]: 16.6%
PT [8]: 12.2 s
Plat [8]: 103.7 x10_4/uL
RBC [8]: 620.4 x10_4/ul
Ret [8]: 8.3%
WBC [8]: 133.5 x10_2/uL
KIDNEY_L [8]: 1.1 g
KIDNEY_R [8]: 1.1 g
KIDNEY_TOTAL [8]: 2.2 g
LIVER [8]: 12 g
ALP [8]: 1023.4 IU/L
ALT [8]: 37 IU/L
AST [8]: 57.4 IU/L
BUN [8]: 14.4 mg/dL
CRE [8]: 0.5 mg/dL
DBIL [8]: 0.006 mg/dL
GLC [8]: 201.6 mg/dL
K [8]: 5.1 meq/L
Na [8]: 140 meq/L
PL [8]: 167.4 mg/dL
RALB [8]: 4 g/dL
TBIL [8]: 0.4 mg/dL
TC [8]: 91.6 mg/dL
TG [8]: 105.8 mg/dL
TP [8]: 5.9 g/dL
gamma-GTP [8]: 1.4 IU/L
